These results are taken from US10072003B2, “Tetrahydronaphthyridine derivatives as mGluR2-negative allosteric modulators, compositions, and their use” (Merck Sharp & Dohme Corp., priority 2014, dated 2018).

For orientation: IC50 means the concentration that inhibits the measured activity by half.

The target of this assay is recombinant human mGluR2 (Homo sapiens (Human), UniProt Q14416). Description: FLIPR Ca2+ mobilization antagonist assay in CHO dhfr- cells expressing human mGluR2 and Gα16. The class given is cell-based. Particulars: antagonist response after addition of 2,500 nM glutamate, Fluo-4 AM, FLIPR384. How it is done: Antagonist constants are determined as follows. The compounds of the invention were tested in a fluorescence laser imaging plate reader based assay. This assay is a common functional assay to monitor Ca2+ mobilization in whole cells expressing recombinant receptor coupled with a promiscuous G-protein. CHO dhfr-cells stably expressing recombinant human mGluR2 and Gα16 loaded with Fluo-4 AM (Invitrogen, Carlsbad Calif.) were treated with various concentrations of antagonists of compounds and the Ca2+ response was monitored on a FLIPR384 (Molecular Devices, Sunnydale Calif.) for agonist activity. Then 2,500 nM glutamate was added and the antagonist response was monitored. The maximum calcium response at each concentration of compound for agonist or antagonist were plotted as dose responses and the curves were fitted with a four parameter logistic equation giving IC50 and Hill coefficient using the iterative non linear curve fitting software ADA (Merck & Co). Data in the following table represent activities in the antagonist assay.
Chain of recombinant human mGluR2 (Q14416 19-872): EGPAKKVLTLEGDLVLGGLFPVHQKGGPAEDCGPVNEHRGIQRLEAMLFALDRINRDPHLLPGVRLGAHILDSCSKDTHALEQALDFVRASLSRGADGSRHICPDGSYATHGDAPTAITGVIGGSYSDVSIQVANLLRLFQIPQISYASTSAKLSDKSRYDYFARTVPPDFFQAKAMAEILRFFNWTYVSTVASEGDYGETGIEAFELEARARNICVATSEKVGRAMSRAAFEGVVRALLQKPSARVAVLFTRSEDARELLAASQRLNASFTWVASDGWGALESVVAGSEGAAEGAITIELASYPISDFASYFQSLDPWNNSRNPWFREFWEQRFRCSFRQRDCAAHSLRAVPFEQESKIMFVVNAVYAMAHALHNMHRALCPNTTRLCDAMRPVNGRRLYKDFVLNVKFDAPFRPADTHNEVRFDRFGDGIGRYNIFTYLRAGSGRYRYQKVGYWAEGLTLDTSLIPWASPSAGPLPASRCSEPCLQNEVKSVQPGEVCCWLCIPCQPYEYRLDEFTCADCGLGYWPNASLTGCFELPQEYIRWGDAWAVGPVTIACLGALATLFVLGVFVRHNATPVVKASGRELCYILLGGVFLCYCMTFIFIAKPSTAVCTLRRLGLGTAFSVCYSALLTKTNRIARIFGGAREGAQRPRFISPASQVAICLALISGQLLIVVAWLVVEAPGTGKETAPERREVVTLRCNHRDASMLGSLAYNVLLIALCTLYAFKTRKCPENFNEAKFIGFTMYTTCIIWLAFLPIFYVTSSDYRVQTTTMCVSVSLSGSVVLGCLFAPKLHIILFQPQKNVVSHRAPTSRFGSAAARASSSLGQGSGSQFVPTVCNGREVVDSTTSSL
For orientation: Calcium assays in cells follow changes in intracellular calcium, usually with a dye or a luminescent sensor.
On to `NC(=O)c1cc(-c2ccc(F)cc2F)c2c(n1)CN(C(CO)c1ccccc1)CC2` (racemic) [Example 8-2B, (S) and (R)-4-(2,4-difluorophenyl)-7-(2-hydroxy-1-phenylethyl)-5,6,7,8-tetrahydro-1,7-naphthyridine-2-carboxamide], for which the IC50 was 11.5 nM.

`CC1(C)CC(CN2CCc3c(-c4ccc(Cl)cc4F)cc(C(N)=O)nc3C2)CCO1` (single isomer, unassigned) [Example 1-5A, (R) or (S)-4-(4-chloro-2-fluorophenyl)-7-((2,2-dimethyltetrahydro-2H-pyran-4-yl)methyl)-5,6,7,8-tetrahydro-1,7-naphthyridine-2-carboxamide]: the IC50 turned out to be 5.6 nM.

Take `CC1(C)CC(CN2CCc3c(-c4ccc(Cl)cc4F)cc(C(N)=O)nc3C2)CCO1` (single isomer, unassigned) [Example 1-5B, (S) or (R)-4-(4-chloro-2-fluorophenyl)-7-((2,2-dimethyltetrahydro-2H-pyran-4-yl)methyl)-5,6,7,8-tetrahydro-1,7-naphthyridine-2-carboxamide]: the IC50 was determined as 7.5 nM.

On to `CC1(C)CC(CN2CCc3c(-c4ccc(F)cc4F)cc(C(N)=O)nc3C2)CCO1` (single isomer, unassigned) [Example 1-11A, (R) or (S)-4-(2,4-difluorophenyl)-7-[(2,2-dimethyltetrahydro-2H-pyran-4-yl)methyl]-5,6,7,8-tetrahydro-1,7-naphthyridine-2-carboxamide], for which the IC50 is 30.1 nM.

For `CC1(C)CC(CN2CCc3c(-c4ccc(F)cc4F)cc(C(N)=O)nc3C2)CCO1` (single isomer, unassigned) [Example 1-11B, (S) or (R)-4-(2,4-difluorophenyl)-7-[(2,2-dimethyltetrahydro-2H-pyran-4-yl)methyl]-5,6,7,8-tetrahydro-1,7-naphthyridine-2-carboxamide], the IC50 was determined as 45.2 nM.

With `NC(=O)c1cc(-c2ccc(F)cc2F)c2c(n1)CN(CC1CCOC(C3CCC3)C1)CC2` (single isomer, unassigned) [Example 1-14, 7-(((2S,4R) or (2R,4S)-2-cyclobutyltetrahydro-2H-pyran-4-yl)methyl)-4-(2,4-difluorophenyl)-5,6,7,8-tetrahydro-1,7-naphthyridine-2-carboxamide], the IC50 was 40.3 nM.

On to `CC1c2nc(C(N)=O)cc(-c3ccc(F)cc3F)c2CCN1Cc1ccnn1C(C)C` (single isomer, unassigned) [Example 1-15A, (S) or (R)-4-(2,4-difluorophenyl)-8-methyl-7-{[1-(1-methylethyl)-1H-pyrazol-5-yl]methyl}-5,6,7,8-tetrahydro-1,7-naphthyridine-2-carboxamide], for which the IC50 came out at 5.8 nM.

For `CC1c2nc(C(N)=O)cc(-c3ccc(F)cc3F)c2CCN1Cc1ccnn1C(C)C` (single isomer, unassigned) [Example 1-15B, (R) or (S)-4-(2,4-difluorophenyl)-8-methyl-7-{[1-(1-methylethyl)-1H-pyrazol-5-yl]methyl}-5,6,7,8-tetrahydro-1,7-naphthyridine-2-carboxamide], the IC50 came out at 5.3 nM.

As to `CC1c2nc(C(N)=O)cc(-c3ccc(F)cc3F)c2CCN1CC1CCOC(C)(C)C1` (single isomer, unassigned) [Example 1-18], the IC50 was determined as 12.3 nM.

As for `CC1c2nc(C(N)=O)cc(N3CCCCC3)c2CCN1Cc1ccnn1C(C)C` (single isomer, unassigned) [Example 1-19, (S) or (R)-8-methyl-7-{[1-(1-methylethyl)-1H-pyrazol-5-yl]methyl}-4-piperidin-1-yl-5,6,7,8-tetrahydro-1,7-naphthyridine-2-carboxamide], the IC50 stood at 13.2 nM.

Regarding `CC1(C)CCC(CN2CCc3c(-c4ccc(F)cc4F)cc(C(N)=O)nc3C2)CO1` (single isomer, unassigned) [Example 1-20, (S) or (R)-4-(2,4-difluorophenyl)-7-[(6,6-dimethyltetrahydro-2H-pyran-3-yl)methyl]-5,6,7,8-tetrahydro-1,7-naphthyridine-2-carboxamide], the IC50 is 24.4 nM.

For `CC1(C)CCC(CN2CCc3c(-c4ccc(Cl)cc4F)cc(C(N)=O)nc3C2)CO1` (single isomer, unassigned) [Example 1-21, (S) or (R)-4-(4-chloro-2-fluorophenyl)-7-[(6,6-dimethyltetrahydro-2H-pyran-3-yl)methyl]-5,6,7,8-tetrahydro-1,7-naphthyridine-2-carboxamide], the IC50 is 9.3 nM.

As for `COC1CCN(c2cc(C(N)=O)nc3c2CCN(Cc2ccnn2C(C)C)C3C)CC1` (single isomer, unassigned) [Example 1-22, (S) or (R)-4-(4-methoxypiperidin-1-yl)-8-methyl-7-{[1-(1-methylethyl)-1H-pyrazol-5-yl]methyl}-5,6,7,8-tetrahydro-1,7-naphthyridine-2-carboxamide], the IC50 came out at 50.6 nM.

Consider `CC1CCCN(c2cc(C(N)=O)nc3c2CCN(Cc2ccnc(C(F)(F)F)c2)C3)C1` (single isomer, unassigned) [Example 5-5A, (S) or (R)-4-(3-methylpiperidin-1-yl)-7-((2-(trifluoromethyl)pyridin-4-yl)methyl)-5,6,7,8-tetrahydro-1,7-naphthyridine-2-carboxamide], for which the IC50 was determined as 18.4 nM.

Take `CC1CCCN(c2cc(C(N)=O)nc3c2CCN(Cc2ccnc(C(F)(F)F)c2)C3)C1` (single isomer, unassigned) [Example 5-5B, (R) or (S)-4-(3-methylpiperidin-1-yl)-7-((2-(trifluoromethyl)pyridin-4-yl)methyl)-5,6,7,8-tetrahydro-1,7-naphthyridine-2-carboxamide]: the IC50 amounted to 12.9 nM.

`NC(=O)c1cc(N2CCCC(F)C2)c2c(n1)CN(Cc1ccnc(C(F)(F)F)c1)CC2` (single isomer, unassigned) [Example 5-6A, (S) or (R)-4-(3-fluoropiperidin-1-yl)-7-((2-(trifluoromethyl)pyridin-4-yl)methyl)-5,6,7,8-tetrahydro-1,7-naphthyridine-2-carboxamide]: the IC50 is 21.4 nM.

With `NC(=O)c1cc(N2CCCC(F)C2)c2c(n1)CN(Cc1ccnc(C(F)(F)F)c1)CC2` (single isomer, unassigned) [Example 5-6B, (R) or (S)-4-(3-fluoropiperidin-1-yl)-7-((2-(trifluoromethyl)pyridin-4-yl)methyl)-5,6,7,8-tetrahydro-1,7-naphthyridine-2-carboxamide], the IC50 was 17.3 nM.

Take `CN1CCN(c2cc(C(N)=O)nc3c2CCN(Cc2ccnc(C(F)(F)F)c2)C3)CC1C(F)(F)F` (single isomer, unassigned) [Example 5-9, (S) or (R)-4-(4-methyl-3-(trifluoromethyl)piperazin-1-yl-7-((2-(trifluoromethyl)pyridin-4-yl)methyl)-5,6,7,8-tetrahydro-1,7-naphthyridine-2-carboxamide]: the IC50 was determined as 92.7 nM.

As for `CC(c1cnnn1C)N1CCc2c(-c3ccc(F)cc3F)cc(C(N)=O)nc2C1` (single isomer, unassigned) [Example 7-1, (S) or (R)-4-(2,4-difluorophenyl)-7-(1-(1-methyl-1H-1,2,3-triazol-5-yl)ethyl)-5,6,7,8-tetrahydro-1,7-naphthyridine-2-carboxamide], the IC50 stood at 37.4 nM.
